≈ marks a conversion by molar mass, not a printed value.

One assay concerns K-562 human leukemia. Description: Cytotoxicity ID50/ID75/ID90, viability assessment. It counts as cell-based. The conditions noted are these: 48 hours. The method, then: (§1) PBLs, K-562 and SNU-1 cells in suspension culture were seeded in 96-well microplates at a density of 5×10^4 cells/well for K-562 and SNU-1, and 1×10^5 cells/well for PBLs. iso-C15 were diluted with medium to provide different concentrations (0, 1.5, 3.0, 6.0, 15.0, 30.0, and 60.0 μg/ml). Both untreated and solvent (NaOH and Tween 80) treated cells served as controls. After incubation for 48 hours at 37° C., cells were collected directly from the wells for viability assessment.
(§2) The ID50, ID75 and ID90 were determined in duplicate in every set of experiments, and each experiment was repeated three times under identical conditions. ID50, ID75 and ID90 were defined as the concentration of iso-C15 required to kill 50, 75 or 90%, respectively, of cells (compared with that in untreated cells) and computed using CalcuSyn for Windows software (Biosoft, Cambridge UK) based on Median Effect method by Dr. T. C. Chou.

Assay [1] has as its system SNU-1 human gastric carcinoma. Briefly: Cytotoxicity ID50/ID75/ID90, viability assessment. It counts as cell-based. The conditions noted are these: 48 hours. As for the experimental part:
as §1, §2

As to `CC(C)CCCCCCCCCCCC(=O)O` [iso-C15, 13-methyltetradecanoic acid], in the assay with K-562 human leukemia, the ID75 was found to be 22.27 ± 4.60 µg/mL (≈ 91.9 µM) and the ID90 came out at 43.57 ± 6.71 µg/mL (≈ 180 µM). In assay [1], the ID75 turned out to be 47.43 ± 4.95 µg/mL (≈ 196 µM) and the ID90 was found to be 80.49 ± 10.03 µg/mL (≈ 332 µM).

(Values after patent US7070965B1, “Small molecule anticancer compounds and related production process” (priority 1998, dated 2006).)
